In one experiment the target is MMP-13 (Homo sapiens, UniProt P45452). The experiment can be described thus: MMP-13 FRET peptide enzyme assay (single dose 10 μM and IC50). The conditions noted are these: for IC50 / activity at 10 µM: measured in duplicate; for activity at 10 µM: remaining enzyme activity at 10 μM inhibitor concentration. The class given is biochemical.
Experiment [1] deals with T1, MMP-7 (Homo sapiens, UniProt P09237).
T1 sequence (P09237 95-267): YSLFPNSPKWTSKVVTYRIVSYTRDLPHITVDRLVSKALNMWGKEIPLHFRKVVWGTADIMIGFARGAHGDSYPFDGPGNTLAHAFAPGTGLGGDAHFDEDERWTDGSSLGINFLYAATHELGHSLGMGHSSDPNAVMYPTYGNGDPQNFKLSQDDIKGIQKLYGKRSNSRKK
In words: MMP-7 FRET peptide enzyme assay (single dose 10 μM and IC50). The conditions noted are these: for IC50: IC50 MMP-7, measured in duplicate; for activity at 10 µM: read-out: % Activity MMP-7.
Experimental: (§1) The buffer consisted of 50 mM HEPES at pH 7.5 with 10 mM CaCl2 and 0.01% Brij-35. 0.1 mg/mL BSA (Sigma Aldrich, St. Louis, MO, USA) was added before use. As a control inhibitor GM6001 (ilomastat, Enzo Life Sciences, Farmingdale, NY, USA) was used. For selectivity examinations single dose duplicate assays were performed in the same manner as described above on the MMP-1, -2, -3, -8, -9, -12 and -14 isoforms.

Experiment [2] concerns the target T1, MMP-7. The conditions noted are these: cited from earlier work.
Experiment [3] deals with T1, MMP-7. Conditions: 10 µM inhibitor concentration; cited from earlier work.
For a further experiment, the target named is T2, MMP-1 (Homo sapiens, UniProt P03956).
T2 sequence (P03956 100-469): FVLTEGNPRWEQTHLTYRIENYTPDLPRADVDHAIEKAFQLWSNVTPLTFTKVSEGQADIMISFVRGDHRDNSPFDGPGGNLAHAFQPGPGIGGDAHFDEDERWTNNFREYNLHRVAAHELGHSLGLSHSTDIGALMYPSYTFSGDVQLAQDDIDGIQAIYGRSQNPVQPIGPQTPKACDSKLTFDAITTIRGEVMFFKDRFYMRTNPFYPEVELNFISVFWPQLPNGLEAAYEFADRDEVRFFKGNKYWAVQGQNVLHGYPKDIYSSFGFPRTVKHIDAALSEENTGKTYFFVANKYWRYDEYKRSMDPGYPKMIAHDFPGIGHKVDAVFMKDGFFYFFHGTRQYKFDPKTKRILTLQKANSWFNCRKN
The conditions noted are these: 10 µM inhibitor concentration; cited from earlier work.

In another experiment the target is T3, MMP-2 (Homo sapiens, UniProt P08253).
T3 sequence (P08253 110-660): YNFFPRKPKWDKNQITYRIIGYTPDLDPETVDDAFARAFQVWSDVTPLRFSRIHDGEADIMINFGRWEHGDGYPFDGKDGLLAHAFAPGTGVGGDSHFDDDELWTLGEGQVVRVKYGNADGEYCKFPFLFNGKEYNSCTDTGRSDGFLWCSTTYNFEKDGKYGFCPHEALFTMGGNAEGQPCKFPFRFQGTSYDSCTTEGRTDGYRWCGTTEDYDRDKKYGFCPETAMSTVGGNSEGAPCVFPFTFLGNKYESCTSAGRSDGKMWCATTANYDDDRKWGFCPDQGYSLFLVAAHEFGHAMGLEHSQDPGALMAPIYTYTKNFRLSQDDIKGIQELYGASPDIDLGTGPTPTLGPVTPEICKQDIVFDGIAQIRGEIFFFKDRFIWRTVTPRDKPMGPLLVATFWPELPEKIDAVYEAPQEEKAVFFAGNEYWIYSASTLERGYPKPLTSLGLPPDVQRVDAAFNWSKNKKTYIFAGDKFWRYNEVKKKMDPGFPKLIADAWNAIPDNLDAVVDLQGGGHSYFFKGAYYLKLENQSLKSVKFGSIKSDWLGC
Conditions: 10 µM inhibitor concentration; cited from earlier work.

Another experiment addresses MMP-3 (Homo sapiens, UniProt P08254). Conditions: 10 µM inhibitor concentration; cited from earlier work.
A further experiment has as its target MMP-8 (Homo sapiens, UniProt P22894). Conditions: 10 µM inhibitor concentration; cited from earlier work.
Another experiment has as its target MMP-9 (Homo sapiens, UniProt P14780). The conditions noted are these: 10 µM inhibitor concentration; cited from earlier work.
The next experiment deals with MMP-12 (Homo sapiens, UniProt P39900). The conditions noted are these: 10 µM inhibitor concentration; cited from earlier work.
Chain of MMP-12 (P39900 106-470): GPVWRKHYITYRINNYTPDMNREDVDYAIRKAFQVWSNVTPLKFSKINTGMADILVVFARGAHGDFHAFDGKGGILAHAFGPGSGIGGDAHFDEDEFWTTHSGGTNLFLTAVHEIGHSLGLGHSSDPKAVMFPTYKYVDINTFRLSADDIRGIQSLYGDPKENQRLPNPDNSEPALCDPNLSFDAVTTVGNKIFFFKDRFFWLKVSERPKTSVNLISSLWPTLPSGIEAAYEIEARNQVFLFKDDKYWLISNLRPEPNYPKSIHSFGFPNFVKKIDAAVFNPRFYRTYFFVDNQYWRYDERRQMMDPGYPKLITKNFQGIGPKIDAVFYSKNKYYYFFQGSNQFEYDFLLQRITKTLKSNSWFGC
The next experiment deals with MMP-14 (Homo sapiens, UniProt P50281). The conditions noted are these: 10 µM inhibitor concentration; cited from earlier work.

Several values for one entry are separate records, joined by “and”; a condition that tells them apart may be missing. Identical values can stand only once. Like-named read-outs stand apart in the source and are kept apart here.

Chain of MMP-3 (P08254 100-477): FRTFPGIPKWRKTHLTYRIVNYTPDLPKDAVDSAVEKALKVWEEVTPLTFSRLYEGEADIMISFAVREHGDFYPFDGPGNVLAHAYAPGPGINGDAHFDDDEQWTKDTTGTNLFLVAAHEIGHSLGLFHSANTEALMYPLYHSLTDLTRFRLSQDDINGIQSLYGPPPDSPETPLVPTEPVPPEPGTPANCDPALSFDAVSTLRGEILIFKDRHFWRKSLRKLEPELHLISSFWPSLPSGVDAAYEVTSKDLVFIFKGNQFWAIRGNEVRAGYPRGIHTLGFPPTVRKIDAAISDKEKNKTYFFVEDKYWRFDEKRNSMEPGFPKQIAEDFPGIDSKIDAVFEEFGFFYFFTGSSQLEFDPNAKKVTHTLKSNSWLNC
Chain of MMP-9 (P14780 94-707): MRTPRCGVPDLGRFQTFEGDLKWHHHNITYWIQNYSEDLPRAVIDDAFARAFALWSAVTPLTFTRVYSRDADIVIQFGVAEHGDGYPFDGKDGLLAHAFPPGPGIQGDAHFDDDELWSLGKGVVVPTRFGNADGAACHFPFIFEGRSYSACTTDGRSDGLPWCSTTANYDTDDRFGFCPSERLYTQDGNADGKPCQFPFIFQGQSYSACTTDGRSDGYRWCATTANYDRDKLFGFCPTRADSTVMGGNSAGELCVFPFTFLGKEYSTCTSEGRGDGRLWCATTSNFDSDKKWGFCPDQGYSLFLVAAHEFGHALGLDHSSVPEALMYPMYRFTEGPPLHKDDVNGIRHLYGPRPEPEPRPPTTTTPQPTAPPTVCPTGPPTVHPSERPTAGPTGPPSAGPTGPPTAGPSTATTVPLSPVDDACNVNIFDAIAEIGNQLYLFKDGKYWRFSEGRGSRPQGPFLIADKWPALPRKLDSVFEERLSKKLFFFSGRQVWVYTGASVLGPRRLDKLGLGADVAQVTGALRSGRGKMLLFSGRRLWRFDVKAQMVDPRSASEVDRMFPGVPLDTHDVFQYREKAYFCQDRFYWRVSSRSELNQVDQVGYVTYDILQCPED
Chain of MMP-8 (P22894 101-467): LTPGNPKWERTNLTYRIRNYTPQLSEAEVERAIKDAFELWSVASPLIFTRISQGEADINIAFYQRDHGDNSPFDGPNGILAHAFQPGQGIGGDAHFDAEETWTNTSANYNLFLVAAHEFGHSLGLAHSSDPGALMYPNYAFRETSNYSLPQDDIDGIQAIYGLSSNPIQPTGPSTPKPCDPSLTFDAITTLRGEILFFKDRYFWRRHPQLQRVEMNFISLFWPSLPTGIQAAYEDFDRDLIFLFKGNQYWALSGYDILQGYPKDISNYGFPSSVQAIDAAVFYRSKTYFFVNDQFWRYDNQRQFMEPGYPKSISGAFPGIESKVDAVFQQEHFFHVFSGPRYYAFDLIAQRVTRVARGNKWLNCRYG
Experimental for MMP-13: as §1

As for `O=C(O)CCCCCCCCCOc1ccc(CC(=O)Nc2ccc3c(c2)C(=O)N(Cc2ccccc2)C3=O)cc1` [Compound 14j, 10-(4-{[(2-Benzyl-1,3-dioxo-2,3-dihydro-1H-isoindol-5-yl)carbamoyl]methyl}phenoxy)decanoic acid], the IC50 on MMP-13 worked out at 7.12 ± 0.94 µM; against MMP-7 [1] it was 6.2 ± 1.85 µM.
As to `O=C(O)CCOc1ccc(CC(=O)Nc2ccc3c(c2)C(=O)N(Cc2ccccc2)C3=O)cc1` [Compound 14c, 3-(4-{[(2-Benzyl-1,3-dioxo-2,3-dihydro-1H-isoindol-5-yl)carbamoyl]methyl}phenoxy)propanoic acid], the activity at 10 µM at MMP-13 amounted to 35.8 ± 5.1%; on MMP-7 [1] it was 93.1 ± 1.7%.
Take `O=C(O)CCCCOc1ccc(CC(=O)Nc2ccc3c(c2)C(=O)N(Cc2ccccc2)C3=O)cc1` [Compound 14e, 5-(4-{[(2-Benzyl-1,3-dioxo-2,3-dihydro-1H-isoindol-5-yl)carbamoyl]methyl}phenoxy)pentanoic acid]: the activity at 10 µM on MMP-7 [1] came to 93.2 ± 3.3%.
Regarding `O=C(O)CCCCCCOc1ccc(CC(=O)Nc2ccc3c(c2)C(=O)N(Cc2ccc(F)cc2)C3=O)cc1` [Compound 14n, 7-{4-[({2-[(4-Fluorophenyl)methyl]-1,3-dioxo-2,3-dihydro-1H-isoindol-5-yl}carbamoyl)methyl]-phenoxy}heptanoic acid], the values for the activity at 10 µM on MMP-13 and on MMP-7 [1] were 1.9 ± 0.5% and 47.5 ± 5.1%, respectively.
Consider `CN1C(=O)c2ccc(NC(=O)Cc3ccc(OCCCCC(=O)O)cc3)cc2C1=O` [Compound 14a, 5-(4-{[(2-Methyl-1,3-dioxo-2,3-dihydro-1H-isoindol-5-yl)carbamoyl]methyl}phenoxy)pentanoic acid], for which the results for the activity at 10 µM at MMP-13 and at MMP-7 [1] were 23.7 ± 3.3% and 100 ± 4.4%, respectively. Also, the “inhibition of MMP-7 (in words)” value against MMP-7 [1] (discussion of structure activity relationship) was “total loss of inhibition”.
Consider `O=C(O)CCCCCOc1ccc(CC(=O)Nc2ccc3c(c2)C(=O)N(Cc2ccccc2)C3=O)cc1` [Compound 14f, 6-(4-{[(2-Benzyl-1,3-dioxo-2,3-dihydro-1H-isoindol-5-yl)carbamoyl]methyl}phenoxy)hexanoic acid], for which the figures for the activity at 10 µM at MMP-13 and at MMP-7 [1] were 2.5 ± 0.1% and 59.4 ± 0.2%, respectively.
Take `O=C(O)CCCCCOc1ccc(CC(=O)Nc2ccc3c(c2)C(=O)N(Cc2ccc(F)cc2)C3=O)cc1` [Compound 14m, 6-{4-[({2-[(4-Fluorophenyl)methyl]-1,3-dioxo-2,3-dihydro-1H-isoindol-5-yl}carbamoyl)methyl]-phenoxy}hexanoic acid]: the activity at 10 µM on MMP-13 turned out to be 1.2 ± 0.1%; on MMP-7 [1], 69.2 ± 0.1%.
Regarding `O=C(O)COc1ccc(CC(=O)Nc2ccc3c(c2)C(=O)N(Cc2ccccc2)C3=O)cc1` [Compound 14b, 2-(4-{[(2-Benzyl-1,3-dioxo-2,3-dihydro-1H-isoindol-5-yl)carbamoyl]methyl}phenoxy)acetic acid], the activity at 10 µM was found to be 58.7 ± 2.7% on MMP-13 and 89.9 ± 10% on MMP-7 [1].
Taken in the same sequence, the figures for `O=C(O)CCCOc1ccc(CC(=O)Nc2ccc3c(c2)C(=O)N(Cc2ccccc2)C3=O)cc1` [Compound 14d, 4-(4-{[(2-Benzyl-1,3-dioxo-2,3-dihydro-1H-isoindol-5-yl)carbamoyl]methyl}phenoxy)butanoic acid] were 2.6 ± 1.3% and 91.3 ± 0.4%.
Regarding `O=C(O)CCOc1ccc(CC(=O)Nc2ccc3c(c2)C(=O)N(Cc2ccc(F)cc2)C3=O)cc1` [Compound 14k, 3-{4-[({2-[(4-Fluorophenyl)methyl]-1,3-dioxo-2,3-dihydro-1H-isoindol-5-yl}carbamoyl)methyl]-phenoxy}propanoic acid], the activity at 10 µM was 37 ± 0.2% at MMP-13 and 98 ± 7.3% at MMP-7 [1].
For `O=C(O)CCCCCCCOc1ccc(CC(=O)Nc2ccc3c(c2)C(=O)N(Cc2ccccc2)C3=O)cc1` [Compound 14h, 8-(4-{[(2-Benzyl-1,3-dioxo-2,3-dihydro-1H-isoindol-5-yl)carbamoyl]methyl}phenoxy)octanoic acid], on MMP-13, half-maximal inhibition (IC50) was put at 1.67 ± 0.429 µM and the activity at 10 µM amounted to 16 ± 0.14%. Also, at MMP-7 [1], the IC50 is 3.18 ± 0.249 µM and the activity at 10 µM was 25.9 ± 0.5%.
Regarding `O=C(O)CCCOc1ccc(CC(=O)Nc2ccc3c(c2)C(=O)N(Cc2ccc(F)cc2)C3=O)cc1` [Compound 14l, 4-{4-[({2-[(4-Fluorophenyl)methyl]-1,3-dioxo-2,3-dihydro-1H-isoindol-5-yl}carbamoyl)methyl]-phenoxy}butanoic acid], at MMP-13, the 50% inhibitory concentration (IC50) is 0.361 ± 0.052 µM and the activity at 10 µM is 3.6 ± 1.1%. Moreover, the activity at 10 µM on MMP-7 [1] is 85.1 ± 2.2%.
As for `O=C(O)C(Cc1c[nH]c2ccccc12)NS(=O)(=O)c1ccc(Cl)c(C(F)(F)F)c1` (stereo not shown) [Compound 3], the “selectivity over MMP-1” value on MMP-7 [2] (MMP-7 over MMP-1) is given as 10 fold. Further, the “selectivity over MMP-14” value at MMP-7 [2] (MMP-7 over MMP-14) is 10 fold. In addition, at MMP-7 [2], the IC50 is 10 µM.
Turning to `O=C(O)CCCCOc1ccc(CC(=O)Nc2ccc3c(c2)C(=O)N(Cc2ccc(F)cc2)C3=O)cc1` [Compound 5, 5-{4-[({2-[(4-Fluorophenyl)methyl]-1,3-dioxo-2,3-dihydro-1H-isoindol-5-yl}carbamoyl)methyl]-phenoxy}pentanoic acid], at MMP-13 (from IC50-values), the “selectivity for MMP-13 over MMP-7” value is more than 2600 fold. The “Remaining enzymatic activity MMP-7” value on MMP-7 [3] was 68%. Besides, the “Remaining enzymatic activity MMP-1” value on MMP-1 was 100%. Also, on MMP-2, the “Remaining enzymatic activity MMP-2” value was 100%. In addition, at MMP-3, the “Remaining enzymatic activity MMP-3” value is on record as 100%. Also, the “Remaining enzymatic activity MMP-8” value at MMP-8 is 97%. Also, the “Remaining enzymatic activity MMP-9” value on MMP-9 is 100%. The “Remaining enzymatic activity MMP-12” value at MMP-12 was 91%. Further, on MMP-14, the “Remaining enzymatic activity MMP-14” value is listed as 100%. At MMP-7 [1], the IC50 is 15.7 µM and 15.6 µM; the activity at 10 µM worked out at 67.5 ± 2.6%.
For `O=C(O)CCCCCCCOc1ccc(CC(=O)Nc2ccc3c(c2)C(=O)N(Cc2ccc(F)cc2)C3=O)cc1` [Compound 14o, 8-{4-[({2-[(4-Fluorophenyl)methyl]-1,3-dioxo-2,3-dihydro-1H-isoindol-5-yl}carbamoyl)methyl]-phenoxy}octanoic acid], the activity at 10 µM on MMP-13 was 34.6 ± 2.3%; at MMP-7 [1], 64.5 ± 3.7%.
At MMP-13, `O=C(O)CCCCCCOc1ccc(CC(=O)Nc2ccc3c(c2)C(=O)N(Cc2ccccc2)C3=O)cc1` [Compound 14g, 7-(4-{[(2-Benzyl-1,3-dioxo-2,3-dihydro-1H-isoindol-5-yl)carbamoyl]methyl}phenoxy)heptanoic acid] came in with an IC50 of 0.15 ± 0.031 µM and an activity at 10 µM of 1 ± 0.1%. Further, the activity at 10 µM at MMP-7 [1] amounted to 53.8 ± 0.8%.

One may read the IC50 as the concentration that gives 50% inhibition.

Values taken from article PMC6151531, “Development of a Non-Hydroxamate Dual Matrix Metalloproteinase (MMP)-7/-13 Inhibitor” (Molecules : A Journal of Synthetic Chemistry and Natural …, 2017).
